Legend:
[1] = target: T1, 5-HT1A (Rattus norvegicus, UniProt P19327); experiment: inhibition of tritiated ligand ([3H]8-OH-DPAT) binding to 5-HT1A receptors, rat hippocampal tissue; design: species or system male Charles River CD rats; settings: for inhibition at 1 µM: at 10^-6 M, read-out: % displacement of specific binding, 5-HT1A; for Ki: 25° C., 30 minutes, pH 7.7
T1 construct: Hippocampal tissue from the brains of male Charles River CD rats; from tissue; host or cells: rat hippocampus (male Charles River CD rats), crude membrane pellet
T1 sequence (P19327 1-422): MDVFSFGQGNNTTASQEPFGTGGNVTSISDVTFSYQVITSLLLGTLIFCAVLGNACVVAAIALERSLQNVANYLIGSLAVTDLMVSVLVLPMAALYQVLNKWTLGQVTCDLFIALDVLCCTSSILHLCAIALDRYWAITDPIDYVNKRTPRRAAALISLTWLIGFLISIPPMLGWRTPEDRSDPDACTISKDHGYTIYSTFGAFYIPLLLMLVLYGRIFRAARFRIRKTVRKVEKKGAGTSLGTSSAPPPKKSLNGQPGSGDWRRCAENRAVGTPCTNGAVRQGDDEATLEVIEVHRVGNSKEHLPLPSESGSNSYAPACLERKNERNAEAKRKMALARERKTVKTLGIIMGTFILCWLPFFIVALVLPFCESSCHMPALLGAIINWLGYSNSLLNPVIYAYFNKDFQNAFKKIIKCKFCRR
Procedure: Hippocampal tissue from the brains of male Charles River CD rats weighing between 150-250 g were homogenised in ice-cold 50 mM Tris-HCl buffer (pH 7.7) when measured at 25° C., 1:40 w/v) and centrifuged at 30,000 g at 4° C. for 10 minutes. The pellet was rehomogenised in the same buffer, incubated at 37° C. for 10 minutes and centrifuged at 30,000 g at 4° C. for 10 minutes. The final pellet was resuspended in 50 mM Tris-HCl buffer (pH 7.7) containing 4 mM CaCl2, 0.1% L-ascorbic acid and 10 μM pargyline hydrochloride (equivalent to 6.25 mg wet weight of tissue/ml) and used immediately in the binding assay. Aliquots (400 μl; equivalent to 2.5 mg wet weight of tissue/tube) of this suspension were added to tubes containing the ligand (50 μl; 2 nM) and distilled water (50 μl; total binding) or 5-HT (50 μl; 10 μM; non-specific binding) or test compound (50 μl; at a single concentration of 10^-6 M or at 10 concentrations ranging from 10^-11 -10^-3 M). The ligand was [^3 H]8-hydroxy-2-(dipropylamino)tetralin ([^3 H]8-OH-DPAT) and the mixture was incubated at 25° C. for 30 minutes before the incubation was terminated by rapid filtration.
The filters were washed with ice-cold Tris-HCl buffer and dried. The filters were punched out into vials, scintillation fluid added and radioactivity determined by liquid scintillation counting. The percentage displacement of specific binding of the tritiated ligand was calculated for the single concentration (10^-6 M) of test compound. Displacement curves were then produced for those compounds which displaced ≥50% of specific binding of the tritiated ligand at 10^-6 M using a range of concentrations of the compound. The concentration which gave 50% inhibition of specific binding (IC50) was obtained from the curve. The inhibition coefficient Ki was then calculated using the formula [formula] in which [ligand] is the concentration of the tritiated ligand used and KD Is the equilibrium dissociation constant for the ligand.

[2] = target: T2, D2-like dopamine receptors (Rattus norvegicus, UniProt P61169); experiment: inhibition of tritiated (S)-sulpiride binding to D2-like dopamine receptors, rat striatal tissue; design: species or system male Charles River CD rats; settings: for Ki: 4° C., 40 minutes, pH 7.7; for inhibition at 1 µM: at 10^-6 M, read-out: % displacement of specific binding, D2-like
T2 construct: Striatal tissue from the brains of male Charles River CD rats; from tissue; host or cells: rat striatum (male Charles River CD rats), crude membrane pellet
Procedure: Striatal tissue from the brains of male Charles River CD rats weighing between 140-250 g were homogenised in ice-cold 50 mM Tris-HCl buffer (pH 7.7 when measured at 25° C.) and centrifuged at 40,000 g for 10 minutes. The pellet was resuspended in Tris salts buffer (50 mM Tris-HCl buffer containing 120 mM NaCl, 5 mM KCl, 2 mM CaCl2 and 1 mM MgCl2 with the addition of 6 mM ascorbic acid; pH 7.7 when measured at 25° C.), and again centrifuged at 40,000 g for 10 minutes. The final pellet was stored at -80° C. Before each test the pellet was resuspended in Tris salts buffer (equivalent to 2 mg wet weight of tissue/ml). Aliquots (720 μl; equivalent to 1.44 mg wet weight of tissue/tube) of this suspension were then added to tubes containing the ligand (40 μl; 1 nM) and Tris salts buffer (40 μl; total binding) or spiroperidol (40 μl; 10 nM; non-specific binding) or test compound (40 μl; at a single concentration of 10^-6 M or at 6 concentrations ranging from 10^-11 -10^-4 M). The ligand was tritiated (S)-sulpiride and the mixture was incubated at 4° C. for 40 minutes before the incubation was terminated by rapid filtration.
The filters were washed with ice-cold Tris-HCl buffer and dried. The filters were punched out in to vials, scintillation fluid added and were left for about 20 hours before being counted by scintillation spectrophotometry. The percentage displacement of specific binding of the tritiated ligand was calculated for the single concentration (10^-6 M) of test compound. Displacement curves were then produced over a range of concentrations for those compounds which displaced ≥50% of specific binding of the tritiated ligand at 10^-6 M. The concentration which gave a 50% inhibition of specific binding (IC50) was obtained from the curve. The inhibition coefficient Ki was then calculated using the formula [formula] in which [ligand] is the concentration of the tritiated ligand used and KD is the equilibrium dissociation constant for the ligand.

T2 sequence (P61169 whole entry): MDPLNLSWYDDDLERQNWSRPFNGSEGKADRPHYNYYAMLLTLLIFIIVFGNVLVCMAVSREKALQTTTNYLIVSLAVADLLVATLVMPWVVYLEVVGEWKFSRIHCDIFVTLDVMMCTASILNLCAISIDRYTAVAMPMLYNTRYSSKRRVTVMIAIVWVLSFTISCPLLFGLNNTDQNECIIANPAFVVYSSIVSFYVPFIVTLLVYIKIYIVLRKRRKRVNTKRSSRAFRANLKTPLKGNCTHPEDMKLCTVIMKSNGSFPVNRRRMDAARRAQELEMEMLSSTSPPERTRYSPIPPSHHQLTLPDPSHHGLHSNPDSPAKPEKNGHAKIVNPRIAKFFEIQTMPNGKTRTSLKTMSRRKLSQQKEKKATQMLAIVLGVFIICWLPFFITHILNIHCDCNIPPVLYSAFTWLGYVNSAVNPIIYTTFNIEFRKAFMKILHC

Row | SMILES | inhibition at 1 µM [1] | Ki [2] | Ki [1] | inhibition at 1 µM [2]
1 | O=[N+]([O-])c1ccc(S(=O)(=O)NCC2CCN(C[C@H]3COc4ccc(Cl)cc4O3)CC2)c([N+](=O)[O-])c1 [Example 15, (S)-N-{[1-(7-Chloro-1,4-benzodioxan-2-ylmethyl)-4-piperidyl]methyl}-2,4-dinitrobenzenesulphonamide] | 82% | 212 nM | – | –
2 | O=S(=O)(NCC1CCN(C[C@H]2COc3ccc(Cl)cc3O2)CC1)c1ccc(C(F)(F)F)cc1 [Example 24, (S)-N-{[1-(7-Chloro-1,4-benzodioxan-2-ylmethyl)-4-piperidyl]methyl}-4-trifluoromethylbenzenesulphonamide] | 90% | 533 nM | – | –
3 | O=S(=O)(NCC1CCN(C[C@H]2COc3ccc(Cl)cc3O2)CC1)c1c(F)cccc1F [Example 10, (S)-(-)-N-{[1-(7-chloro-1,4-benzodioxan-2-ylmethyl)-4-piperidyl]methyl}-2,6-difluorobenzenesulphonamide] | – | 50.1 nM | 7.4 nM | –
4 | O=S(=O)(NCC1CCN(C[C@H]2COc3ccc(Cl)cc3O2)CC1)c1cccnc1 [Example 3, (S)-(-)-N-{[1-(7-chloro-1,4-benzodioxan-2-ylmethyl)-4-piperidyl]methyl}pyridine-3-sulphonamide 0.8 hydrate] | – | 28 nM | 31.6 nM | –
5 | CCN(CC)c1cccc2c(S(=O)(=O)NCC3CCN(C[C@H]4COc5ccc(Cl)cc5O4)CC3)cccc12 [Example 23, (S)-N-{[1-(7-Chloro-1,4-benzodioxan-2-ylmethyl)-4-piperidyl]methyl}-5-(diethylamino)naphthalene-1-sulphonamide] | 82% | – | – | 83%
6 | Cc1ccc(S(=O)(=O)NCC2CCN(C[C@H]3COc4ccc(Cl)cc4O3)CC2)cc1 [Example 33, (S)-N-{[1-(7-Chloro-1,4-benzodioxan-2-ylmethyl)-4-piperidyl]methyl}-4-methylbenzenesulphonamide] | 91% | 301 nM | – | –
7 | O=S(=O)(NCC1CCN(C[C@H]2COc3ccc(Cl)cc3O2)CC1)c1ccccc1F [Example 40, (S)-(-)-N-{[1-(7-Chloro-1,4-benzodioxan-2-ylmethyl)-4-piperidyl]methyl}-2-fluorobenzenesulphonamide] | 93% | – | – | 107%
8 | O=S(=O)(NCC1CCN(C[C@H]2COc3ccc(Cl)cc3O2)CC1)c1ccccc1 [Example 34, (S)-N-{[1-(7-Chloro-1,4-benzodioxan-2-ylmethyl)-4-piperidyl]methyl}benzene-sulphonamide] | 87% | 88 nM | – | –
9 | O=S(=O)(NCC1CCN(C[C@H]2COc3ccc(Cl)cc3O2)CC1)c1cccc(C(F)(F)F)c1 [Example 28, (S)-N-{[1-(7-Chloro-1,4-benzodioxan-2-ylmethyl)-4-piperidyl]methyl}-3-trifluoromethylbenzenesulphonamide] | 68% | 352 nM | – | –
10 | O=[N+]([O-])c1ccc(S(=O)(=O)NCC2CCN(C[C@H]3COc4ccc(Cl)cc4O3)CC2)cc1 [Example 4, (S)-(-)-N-{[1-(7-chloro-1,4-benzodioxan-2-ylmethyl)-4-piperidyl]-methyl}-4-nitrobenzenesulphonamide] | – | 105 nM | 15 nM | –

Second part, the compound after the results:

Row | inhibition at 1 µM [1] | Ki [2] | Ki [1] | inhibition at 1 µM [2] | SMILES
11 | 91% | 119 nM | – | – | O=[N+]([O-])c1cccc(S(=O)(=O)NCC2CCN(C[C@H]3COc4ccc(Cl)cc4O3)CC2)c1 [Example 25, (S)-N-{[1-(7-Chloro-1,4-benzodioxan-2-ylmethyl)-4-piperidyl]methyl}-3-nitrobenzenesulphonamide]
12 | 71% | 249 nM | – | – | Cc1cc(C)c(S(=O)(=O)NCC2CCN(C[C@H]3COc4ccc(Cl)cc4O3)CC2)c(C)c1 [Example 21, (S)-N-{[1-(7-Chloro-1,4-benzodioxan-2-ylmethyl)-4-piperidyl]methyl}-2,4,6-trimethylbenzenesulphonamide]
13 | 96% | – | – | 106% | O=S(=O)(NCC1CCN(C[C@H]2COc3ccc(Br)cc3O2)CC1)c1ccccc1Cl [Example 46, (S)-(-)-N-{[1-(7-Bromo-1,4-benzodioxan-2-ylmethyl)-4-piperidyl]methyl}-2-chlorobenzenesulphonamide]
14 | 80% | – | – | 84% | O=S(=O)(NCC1CCN(C[C@H]2COc3ccc(Cl)cc3O2)CC1)c1ccc(F)c(Cl)c1 [Example 42, (S)-(-)-3-Chloro-N-{[1-(7-chloro-1,4-benzodioxan-2-ylmethyl)-4-piperidyl]methyl}-4-fluoro-benzenesulphonamide]
15 | 81% | 328 nM | – | – | Cc1ccc(F)cc1S(=O)(=O)NCC1CCN(C[C@H]2COc3ccc(Cl)cc3O2)CC1 [Example 35, (S)-N-{[1-(7-Chloro-1,4-benzodioxan-2-ylmethyl)-4-piperidyl]methyl}-5-fluoro-2-methylbenzenesulphonamide]
16 | – | 48 nM | 16 nM | – | O=S(=O)(NCC1CCN(C[C@H]2COc3ccc(Br)cc3O2)CC1)c1ccc(F)cc1F [Example 47, (S)-(-)-N-{[1-(7-Bromo-1,4-benzodioxan-2-ylmethyl)-4-piperidyl]methyl}-2,4-difluorobenzenesulphonamide]
17 | – | 73 nM | 1.5 nM | – | O=S(=O)(NCC1CCN(C[C@H]2COc3ccc(Cl)cc3O2)CC1)c1cccc(Cl)c1Cl [Example 43, (S)-(-)-2,3-Dichloro-N-{[1-(7-chloro-1,4-benzodioxan-2-ylmethyl)-4-piperidyl]methyl}benzenesulphonamide]
18 | 95% | 330 nM | – | – | O=S(=O)(NCC1CCN(C[C@H]2COc3ccc(Cl)cc3O2)CC1)c1ccc(F)c(F)c1F [Example 38, (S)-N-{[1-(7-Chloro-1,4-benzodioxan-2-ylmethyl)-4-piperidyl]methyl}-2,3,4-trifluorobenzenesulphonamide]
19 | – | 37.2 nM | 45 nM | – | CC(=O)Nc1ccc(S(=O)(=O)NCC2CCN(C[C@H]3COc4ccc(Cl)cc4O3)CC2)cc1 [Example 8, (S)-(-)-4-acetamido-N-{[1-(7-chloro-1,4-benzodioxan-2-ylmethyl)-4-piperidyl]methyl}benzenesulphonamide]
20 | 77% | – | – | 89% | O=S(=O)(NCC1CCN(C[C@H]2COc3cc4c(cc3O2)OCO4)CC1)c1cccc(Cl)c1Cl [Example 49, (S)-(-)-2,3-Dichloro-N-{[1-(^6,^7-methylenedioxy-1,4-benzodioxan-2-ylmethyl)-4-piperidyl]methyl}benzenesulphonamide]
